Values quoted from earlier work as cited in patent US20260007782A1, “PREPARATION METHOD FOR LIQUID COMPOSITION COMPRISING COMPOUND I AND USE IN MYOCARDIAL PERFUSION PET IMAGING” (SINOTAU PHARMACEUTICAL GROUP, priority 2022, published 2026).

Settings: animals

For `CC(C)(C)n1ncc(OCc2cccc(Cn3cc(COCCOCC[18F])nn3)c2)c(Cl)c1=O` [Compound I, 2-tert-butyl-4-chloro-5-((3-((4-((2-(2-fluoro[^18F]ethoxy)ethoxy)methyl)-1H-1,2,3-triazol-1-yl)methyl)benzyl)oxy)pyridazin-3(2H)-one], the cardiac uptake (15 minutes post-injection) is listed as “high”, the liver uptake (15 minutes post-injection) is listed as “low” and the heart-to-liver ratio (maintained after 60 minutes) is listed as “favorable”.
